# Assay results as given in US20230399342A1 (Incyte Corporation, priority 2022, published 2023).
# Legend:
# DGKζ = DGKζ (Homo sapiens (Human), UniProt Q13574); test: In vitro DGKζ inhibition assay (ADP-Glo); type: biochemical; conditions: His-tagged human recombinant enzyme, 0.4 nM DGK, 30 μM ATP, 20 μM DLG, 90 minute incubation
# Method: (§1) The DGKα and DGKξ biochemical reactions were performed using His-tagged human recombinant enzymes (Signal Chem, DGKα, #D21-1OBH; DGKξ, #D30-10H)) and DLG (Dilauroyl-sn-glycerol) lipid substrate (Signal Chem, #D430-59). ADP-Glo assay was performed using ADP-Glog™ kinase Assay kit (Promega, #V9104). The reactions were carried out in assay buffer containing 40 mM Tris, pH 7.5, 0.1% CHAPS, 0.1% Prionex, 40 mM NaCl, 5 mM MgCl2, 1 mM CaCl2, and 1 mM DTT. DGKα reactions contained 0.1 nM DGKα, 50 μM ATP, and 20 μM DLG. And DGKC reactions contained 0.4 nM DGK, 30 μM ATP, and 20 μM DLG.
# (§2) For compound inhibition studies, 40 nL test compound in DMSO was added to wells of white polystyrene plates in 384-well (Greiner, #784075) or 1536-well format (Greiner, #782075). Compounds were added with top concentration of 2 mM with 11 point, 3-fold dilution series. Enzyme solution (contains 2×DGK enzyme concentration in Ix assay buffer) was added to the plate in 2 μL/well volume, followed by 2 μL/well of substrate solution (contains 2×concentration of ATP and DLG substrate in Ix assay buffer). Plates were then centrifuged for 1 min at 1200 RPM and sealed or lidded. For 4 μL reaction volume, test compounds were therefore diluted 100× to final top concentration of 20 μM. After 90 minute incubation, reactions were quenched by addition of 2 μL/well Promega ADP-Glo Reagent, followed by centrifugation and lidding. After 60 min incubation, 2 μL/well Promega Kinase Detection Reagent was added, plates centrifuged, and incubated for 30 min. Plates were then read using Luminescence method on BMG PHERAstar FSX plate reader. Percent inhibition was calculated and IC50s were determined using 4-parameter fit in Genedata Screener. Labcyte Echo acoustic dispenser was used for compound addition, and Formulatrix Tempest liquid handler was used for all reagent dispenses.
# DGKα = DGKα (Homo sapiens (Human), UniProt P23743); test: In vitro DGKα inhibition assay (ADP-Glo); type: biochemical; conditions: His-tagged human recombinant enzyme, 0.1 nM DGKα, 50 μM ATP, 20 μM DLG, 90 minute incubation
# Method: as §1, §2
# Sequence of DGKα (P23743 whole entry): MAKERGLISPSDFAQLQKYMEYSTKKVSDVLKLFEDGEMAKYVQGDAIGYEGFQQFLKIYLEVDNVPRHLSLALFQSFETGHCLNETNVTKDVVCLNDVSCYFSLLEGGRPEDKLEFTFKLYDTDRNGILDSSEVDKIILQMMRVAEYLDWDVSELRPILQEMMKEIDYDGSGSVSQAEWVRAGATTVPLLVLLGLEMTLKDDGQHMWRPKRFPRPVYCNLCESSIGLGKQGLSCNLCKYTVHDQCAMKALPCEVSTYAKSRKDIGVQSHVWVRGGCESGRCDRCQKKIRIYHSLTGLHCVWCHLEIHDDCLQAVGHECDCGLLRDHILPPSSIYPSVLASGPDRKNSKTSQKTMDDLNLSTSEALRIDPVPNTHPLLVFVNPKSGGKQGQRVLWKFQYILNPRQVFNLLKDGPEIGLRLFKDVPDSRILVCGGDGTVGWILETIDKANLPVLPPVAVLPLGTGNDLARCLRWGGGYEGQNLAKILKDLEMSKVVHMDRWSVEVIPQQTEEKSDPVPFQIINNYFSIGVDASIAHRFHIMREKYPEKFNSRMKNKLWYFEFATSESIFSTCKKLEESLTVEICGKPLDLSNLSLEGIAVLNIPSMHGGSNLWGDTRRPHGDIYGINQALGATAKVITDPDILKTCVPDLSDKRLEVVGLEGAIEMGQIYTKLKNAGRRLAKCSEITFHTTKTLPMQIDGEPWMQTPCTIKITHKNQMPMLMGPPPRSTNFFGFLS
# Sequence of DGKζ (Q13574 whole entry): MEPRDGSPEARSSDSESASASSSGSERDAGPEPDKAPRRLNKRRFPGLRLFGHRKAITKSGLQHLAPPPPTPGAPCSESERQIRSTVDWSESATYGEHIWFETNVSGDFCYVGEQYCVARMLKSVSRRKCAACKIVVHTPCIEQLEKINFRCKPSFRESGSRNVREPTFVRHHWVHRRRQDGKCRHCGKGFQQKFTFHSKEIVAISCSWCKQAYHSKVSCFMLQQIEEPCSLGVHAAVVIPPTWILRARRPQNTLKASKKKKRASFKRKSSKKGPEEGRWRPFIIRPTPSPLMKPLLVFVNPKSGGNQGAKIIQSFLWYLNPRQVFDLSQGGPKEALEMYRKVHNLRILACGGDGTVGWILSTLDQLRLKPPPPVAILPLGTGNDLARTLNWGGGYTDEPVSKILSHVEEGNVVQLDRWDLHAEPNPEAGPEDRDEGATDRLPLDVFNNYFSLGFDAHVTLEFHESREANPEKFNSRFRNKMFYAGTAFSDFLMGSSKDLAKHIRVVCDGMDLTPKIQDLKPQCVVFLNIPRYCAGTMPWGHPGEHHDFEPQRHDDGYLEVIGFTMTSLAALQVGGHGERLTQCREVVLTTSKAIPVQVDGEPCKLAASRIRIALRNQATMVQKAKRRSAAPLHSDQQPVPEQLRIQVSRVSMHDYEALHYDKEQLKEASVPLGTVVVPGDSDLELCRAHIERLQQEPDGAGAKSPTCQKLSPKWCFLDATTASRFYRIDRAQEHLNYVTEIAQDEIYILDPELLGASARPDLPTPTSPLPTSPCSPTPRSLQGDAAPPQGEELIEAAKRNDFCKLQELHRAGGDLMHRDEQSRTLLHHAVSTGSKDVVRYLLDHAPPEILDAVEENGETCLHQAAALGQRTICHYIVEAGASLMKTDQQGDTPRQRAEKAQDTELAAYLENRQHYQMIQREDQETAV
Compound,IC50 (DGKζ),IC50 (DGKα)
"Cc1nc2c(N3C[C@@H](C)N(C(c4ccc(Br)c(F)c4)C4CC(F)(F)C4)C[C@@H]3C)nc3nncn3c2n1C[C@@H]1CCCO1 (stereo partly drawn) [Example 63, 4-((2S,5R)-4-((4-Bromo-3-fluorophenyl)(3,3-difluorocyclobutyl)methyl)-2,5-dimethylpiperazin-1-yl)-2-methyl-1-(((S)-tetrahydrofuran-2-yl)methyl)-1H-[1,2,4]triazolo[3,4-b]purine]",≤ 20 nM,≤ 20 nM
"Cc1nc2c(N3C[C@@H](C)N(C(c4ccc(Br)cc4)c4ccc(Br)cc4)C[C@@H]3C)nc3nncn3c2n1C[C@@H]1CCCO1 [Example 108, 4-((2S,5R)-4-(Bis(4-bromophenyl)methyl)-2,5-dimethylpiperazin-1-yl)-2-methyl-1-(((S)-tetrahydrofuran-2-yl)methyl)-1H-[1,2,4]triazolo[3,4-b]purine]",≤ 20 nM,≤ 20 nM
"C[C@@H]1CN(c2nc3nncn3c3sc(CCC#N)nc23)[C@@H](C)CN1C(c1ccc(F)cc1)c1ccc(F)cc1 [Example 4, 3-(4-((2S,5R)-4-(Bis(4-fluorophenyl)methyl)-2,5-dimethylpiperazin-1-yl)thiazolo[4,5-e][1,2,4]triazolo[4,3-a]pyrimidin-2-yl)propanenitrile]",200 to 2000 nM,≤ 20 nM
"Cc1cc(C(C2CC(F)(F)C2)N2C[C@H](C)N(c3nc4nncn4c4c3nc(C)n4C[C@@H]3CCCO3)C[C@H]2C)ccc1Cl (stereo partly drawn) [Example 51, 4-((2S,5R)-4-((4-Chloro-3-methylphenyl)(3,3-difluorocyclobutyl)methyl)-2,5-dimethylpiperazin-1-yl)-2-methyl-1-(((S)-tetrahydrofuran-2-yl)methyl)-1H-[1,2,4]triazolo[3,4-b]purine]",≤ 20 nM,≤ 20 nM
"C[C@@H]1CN(c2nc3nncn3c3c2ncn3CCN(C)C)[C@@H](C)CN1[C@@H](c1ccc(C(F)(F)F)cc1)c1ccc(C(F)(F)F)cn1 [Example 101, 2-(4-((2S,5R)-2,5-Dimethyl-4-((S)-(4-(trifluoromethyl)phenyl)(5-(trifluoromethyl)pyridin-2-yl)methyl)piperazin-1-yl)-1H-[1,2,4]triazolo[3,4-b]purin-1-yl)-N,N-dimethylethan-1-amine]",≤ 20 nM,≤ 20 nM
"Cc1nn(C)c2c1c(N1C[C@@H](C)N(C(c3ccc(F)cc3)c3ccc(F)cc3)C[C@@H]1C)cc1nncn12 [Example 12, 4-((2S,5R)-4-(Bis(4-fluorophenyl)methyl)-2,5-dimethylpiperazin-1-yl)-1,3-dimethyl-1H-pyrazolo[4,3-e][1,2,4]triazolo[4,3-a]pyridine]",> 2000 nM,≤ 20 nM
"C[C@H]1CN(C(c2ccc(F)cc2)c2ccc(F)cc2)[C@H](CC#N)CN1c1nc2nnc(C3CC3)n2c2scnc12 [Example 15, 2-((2R,5S)-1-(Bis(4-fluorophenyl)methyl)-4-(8-cyclopropylthiazolo[4,5-e][1,2,4]triazolo[4,3-a]pyrimidin-4-yl)-5-methylpiperazin-2-yl)acetonitrile]",≤ 20 nM,20 to 200 nM
"C[C@@H]1CN(c2nc3nncn3c3c2nnn3C[C@H]2CCCO2)[C@@H](C)CN1C(c1ccc(F)cc1)c1ccc(F)cc1 [Example 29, 4-((2S,5R)-4-(Bis(4-fluorophenyl)methyl)-2,5-dimethylpiperazin-1-yl)-1-(((R)-tetrahydrofuran-2-yl)methyl)-1H-[1,2,3]triazolo[4,5-e][1,2,4]triazolo[4,3-a]pyrimidine]",≤ 20 nM,≤ 20 nM
"Cc1nc2c(N3C[C@@H](C)N([C@H](c4ccc(OC(F)F)cc4F)C(C)C)C[C@@H]3C)nc3nncn3c2n1C[C@@H]1CCCO1 [Example 75, 4-((2S,5R)-4-((S)-1-(4-(Difluoromethoxy)-2-fluorophenyl)-2-methylpropyl)-2,5-dimethylpiperazin-1-yl)-2-methyl-1-(((S)-tetrahydrofuran-2-yl)methyl)-1H-[1,2,4]triazolo[3,4-b]purine]",≤ 20 nM,≤ 20 nM
"Cc1nc2c(N3C[C@@H](C)N([C@@H](c4ccc(Br)cc4)C(C)C)C[C@@H]3C)nc3nncn3c2n1C[C@@H]1CCCO1 [Example 139, 4-((2S,5R)-4-((R)-1-(4-bromophenyl)-2-methylpropyl)-2,5-dimethylpiperazin-1-yl)-2-methyl-1-(((S)-tetrahydrofuran-2-yl)methyl)-1H-[1,2,4]triazolo[3,4-b]purine]",≤ 20 nM,≤ 20 nM
"Cc1nc2c(N3C[C@@H](C)N([C@@H](c4ccc(C(F)(F)F)cc4F)C(C)C)C[C@@H]3C)nc3nncn3c2n1C[C@@H]1CCCO1 [Example 72, 4-((2S,5R)-4-((R)-1-(2-fluoro-4-(trifluoromethyl)phenyl)-2-methylpropyl)-2,5-dimethylpiperazin-1-yl)-2-methyl-1-(((S)-tetrahydrofuran-2-yl)methyl)-1H-[1,2,4]triazolo[3,4-b]purine]",≤ 20 nM,≤ 20 nM
"CC[C@H]1CN(C(c2ccc(F)cc2)c2ccc(F)cc2)[C@H](CC)CN1c1nc2nncn2c2c1nnn2C[C@@H]1CCCO1 [Example 31, 4-((2S,5R)-4-(Bis(4-fluorophenyl)methyl)-2,5-diethylpiperazin-1-yl)-1-(((S)-tetrahydrofuran-2-yl)methyl)-1H-[1,2,3]triazolo[4,5-e][1,2,4]triazolo[4,3-a]pyrimidine]",≤ 20 nM,≤ 20 nM
"C[C@@H]1CN(c2nc3nncn3c3c2ncn3CCN(C)C)[C@@H](C)CN1C(c1ccc(Br)cc1)C1CC(F)(F)C1 (stereo partly drawn) [Example 65, 2-(4-((2S,5R)-4-((4-Bromophenyl)(3,3-difluorocyclobutyl)methyl)-2,5-dimethylpiperazin-1-yl)-1H-[1,2,4]triazolo[3,4-b]purin-1-yl)-N,N-dimethylethan-1-amine]",≤ 20 nM,≤ 20 nM
"Cc1nc2c(N3C[C@@H](C)N(C(c4ccc(C(F)F)c(F)c4)C(C)C)C[C@@H]3C)nc3nncn3c2n1C[C@@H]1CCCO1 (single isomer, unassigned) [Example 81]",≤ 20 nM,≤ 20 nM
"CC(C)[C@@H](c1ccc(Cl)cc1)N1C[C@H](C)N(c2nc3nncn3c3c2ncn3CCN(C)C)C[C@H]1C [Example 90, 2-(4-((2S,5R)-4-((S)-1-(4-Chlorophenyl)-2-methylpropyl)-2,5-dimethylpiperazin-1-yl)-1H-[1,2,4]triazolo[3,4-b]purin-1-yl)-N,N-dimethylethan-1-amine]",≤ 20 nM,≤ 20 nM
"CC[C@@H]1CN(c2nc3nncn3c3c2nnn3C[C@@H]2CCCO2)[C@@H](C)CN1C(c1ccc(F)cc1)c1ccc(F)cc1 [Example 30, 4-((2S,5R)-4-(Bis(4-fluorophenyl)methyl)-5-ethyl-2-methylpiperazin-1-yl)-1-(((S)-tetrahydrofuran-2-yl)methyl)-1H-[1,2,3]triazolo[4,5-e][1,2,4]triazolo[4,3-a]pyrimidine]",≤ 20 nM,≤ 20 nM
"Cc1nc2c(N3C[C@@H](C)N(C(c4ccc(C(F)(F)F)c(Cl)c4)C(C)C)C[C@@H]3C)nc3nncn3c2n1C[C@@H]1CCCO1 (stereo partly drawn) [Example 85, 4-((2S,5R)-4-(1-(3-Chloro-4-(trifluoromethyl)phenyl)-2-methylpropyl)-2,5-dimethylpiperazin-1-yl)-2-methyl-1-(((S)-tetrahydrofuran-2-yl)methyl)-1H-[1,2,4]triazolo[3,4-b]purine]",≤ 20 nM,≤ 20 nM
"Cc1nc2c(N3C[C@@H](C)N([C@@H](c4ccc(OC(F)F)cc4)C(C)C)C[C@@H]3C)nc3nncn3c2n1C[C@@H]1CCCO1 [Example 80, 4-((2S,5R)-4-((R)-1-(4-(difluoromethoxy)phenyl)-2-methylpropyl)-2,5-dimethylpiperazin-1-yl)-2-methyl-1-(((S)-tetrahydrofuran-2-yl)methyl)-1H-[1,2,4]triazolo[3,4-b]purine]",20 to 200 nM,≤ 20 nM
"C[C@@H]1CN(c2nc3nncn3c3c2ncn3C[C@@H]2CCCO2)[C@@H](C)CN1C(c1ccc(Cl)cc1)c1ccc(Cl)cc1 [Example 93, 4-((2S,5R)-4-(Bis(4-chlorophenyl)methyl)-2,5-dimethylpiperazin-1-yl)-1-(((S)-tetrahydrofuran-2-yl)methyl)-1H-[1,2,4]triazolo[3,4-b]purine]",≤ 20 nM,≤ 20 nM
"C[C@@H]1CN(c2nc3nncn3c3c2ncn3CCN(C)C)[C@@H](C)CN1C(c1ccc(C(F)(F)F)cn1)c1ccc(C(F)(F)F)cn1 [Example 112, 2-(4-((2S,5R)-4-(Bis(5-(trifluoromethyl)pyridin-2-yl)methyl)-2,5-dimethylpiperazin-1-yl)-1H-[1,2,4]triazolo[3,4-b]purin-1-yl)-N,N-dimethylethan-1-amine]",≤ 20 nM,≤ 20 nM
